Here are results for five molecules from patent US8309788B2, “Protease inhibitors in absorbent articles” (The Procter and Gamble Company, priority 1999, dated 2012).

Where a SMILES comes first, the peptide text is derived from it. [ ]: non-standard residue; d: D form. The star is where a group is joined. Sta = CC(C)C[C@H](N)[C@@H](O)CC(=O)O; Isovaleryl = CC(C)CC(=O)*

In assay [1] the test system is IL-1α production by cultured keratinocytes in the presence of feces. The experiment in a line: In Vitro Skin Test for Inhibition of IL-1α Production. The class given is cell-based, human. The source says:
In an in vitro method to determine the efficacy of protease inhibitors in preventing the proinflammatory response of the skin to feces and fecal enzymes, human keratinocytes are obtained from epidermal tissue and cultured in serum free medium in plastic culture vessels containing a nylon mesh surface for a period of time until they are confluent. The mesh surface is then raised to the liquid air interface in order to promote differentiation and formation of multilayered organized layers analogous to those found in vivo, including a well defined stratum corneum barrier layer. Any cell culture system that promotes the growth and differentiation of keratinocytes, as described, may be employed. A commercially available cell culture system suitable for use in the invention is Epiderm (MatTek Corporation, Ashland, Mass.). Infant feces are collected in a manner to keep them free of urine contamination and diluted with phosphate-buffered saline (PBS) (pH 7.2-7.4.) The mixture is then mixed thoroughly to obtain a homogeneous suspension by homogenization or sonication. To assay for IL-1α production due to fecal enzyme activity, an aliquot of the homogenate is diluted with PBS and added to the surface of a control culture in a culture vessel. To assay for inhibition of IL-1α production due to protease activity, a predetermined quantity of a putative protease inhibitor is added to an otherwise identical diluted aliquot of the homogenate prior to adding it to the surface of a test culture. The cultures are allowed to incubate in a controlled atmosphere. At selected times, the control cultures and inhibitor-treated test cultures, and the underlying culture media are harvested. The culture media are assayed for the presence of IL-1α by known methods. For example, a suitable assay for IL-1α is an enzyme-linked immunoabsorbent method commercially available as Quantikine from R&D Systems, Minneapolis, Minn. The percent reduction in IL-1α production due to the presence of the protease inhibitor is calculated as follows: [formula] […]

A further assay deals with purified chymotrypsin. The experiment in a line: Purified Protease Method: purified chymotrypsin. The format is biochemical. As to conditions: pH 7.6, 25° C., read-out: IC50 Values, Purified Proteases, Chymotrypsin. How it is done: Standard in vitro assays for enzyme activity and inhibition of enzyme activity are well known. The reagents used to conduct these tests are generally commercially available. In general, a simple system comprises an enzyme-specific substrate which, when hydrolyzed by the enzyme, produces a colored product. The activity of the enzyme is measured spectrophotometrically as the degree of development of the colored product (i.e. the rate of color change) over a predetermined time period.
For the Purified Protease assay and the Fecal Protease assays described below, the IC50 for each inhibitor tested is calculated according to the following equation: IC50=[I]/[(v/vi)−1] where: [I] is the inhibitor concentration tested, v is the rate of substrate cleavage in the absence of inhibitor and vi is the rate of substrate cleavage in the presence of inhibitor.
The following Purified Protease and Fecal Protease Methods are utilized to determine the inhibitory activity of putative protease inhibitors against a) purified proteases known to exist in feces; and b) the protease activity of feces itself; respectively. […] In the Methods, v and vi are measured as the change in absorbance (optical density, OD) at a given wavelength/time (e.g., minutes).
To test the efficacy of protease inhibitors against purified chymotrypsin, 0.05 mL of a putative inhibitor and 0.125 mL of 16 nM chymotrypsin (e.g., Sigma, St. Louis, Mo., catalogue no. C8946) in chymotrypsin buffer (50 mM TRIS, 10 mM CaCl2, pH 7.6) are added to a microcuvette. […] To this mixture, 0.025 mL of substrate (0.6 mM N-Succ-Ala-Ala-Pro-Phe-p-nitroanilide, e.g., Sigma cat. no. S7388) in chymotrypsin buffer is added to the cuvette, mixed, and the absorbance at 405 nm measured over 10 minutes at 25° C. The rate of substrate cleavage in the presence of inhibitor (vi) is the slope of a plot relating the absorbance at 405 nm versus time. […] The rate of substrate cleavage in the absence of inhibitor (v) is the slope of a plot relating the absorbance at 405 nm versus time. […]

For the molecule `N=C(N)c1ccc(OCCCCCCOc2ccc(C(=N)N)cc2)cc1` [Hexamidine diisethionate, hexamidine diisethionate], the “reduction of IL-1α production from skin cultures treated with feces” value in assay [1] (inhibitor concentration 100 μM) is given as 5%; in assay [1] (inhibitor concentration 1000 μM), 51-88%.

Aprotinin: the IC50 in the assay with purified chymotrypsin was found to be 1000 nM.

With `CC(C)C[C@H](NC(=O)[C@@H](NC(=O)N[C@@H](Cc1ccccc1)C(=O)O)[C@@H]1CCN=C(N)N1)C(=O)N[C@H](C=O)Cc1ccccc1` [Chymostatin], the concentration for half-maximal inhibition (IC50) in the assay on purified chymotrypsin was under 120 nM.

As to `CC(C)CC(=O)N[C@H](C(=O)N[C@H](C(=O)N[C@@H](CC(C)C)[C@@H](O)CC(=O)N[C@@H](C)C(=O)N[C@@H](CC(C)C)[C@@H](O)CC(=O)O)C(C)C)C(C)C` [Pepstatin A] (Isovaleryl-VV[Sta]A[Sta]-OH), the IC50 in the assay with purified chymotrypsin was found to be 4900 nM.

B1: Soybean trypsin inhibitor: plant-derived trypsin inhibitor; serine protease inhibitor (protein, UniProt P01070 25-205, looked up)
Trypsin inhibitor A: DFVLDNEGNPLENGGTYYILSDITAFGGIRAAPTGNERCPLTVVQSRNELDKGIGTIISSPYRIRFIAEGHPLSLKFDSFAVIMLCVGIPTEWSVVEDLPEGPAVKIGENKDAMDGWFRLERVSDDEFNNYKLVFCPQQAEDDKCGDIGISIDHDDGTRRLVVSKNKPLVVQFQKLDKESL
In the case of B1, in assay [1] (inhibitor concentration 10 μM), the “reduction of IL-1α production from skin cultures treated with feces” value is given as 56-75%.
